Measurements taken from PubChem BioAssay AID651650 (Sanford-Burnham Center for Chemical Genomics, 2012).
Calls of active or inactive are those of the source.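 Rule for the calls: active = mean IC50 below 20 µM in each of the two panels, so potent in both; inactive = the rest.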

biological target: Neuropilin-1 (Homo sapiens) (UniProt O14786); assay: blockers of CendR peptide binding to NRP-1 – biochemical, FP and AlphaScreen panel, dose response (AID 651650); conditions: NRP-1 b1b2 / RPARPAR peptide binding, FP or AlphaScreen; AlphaScreen, mean of runs
Sequence (O14786 whole entry, looked up): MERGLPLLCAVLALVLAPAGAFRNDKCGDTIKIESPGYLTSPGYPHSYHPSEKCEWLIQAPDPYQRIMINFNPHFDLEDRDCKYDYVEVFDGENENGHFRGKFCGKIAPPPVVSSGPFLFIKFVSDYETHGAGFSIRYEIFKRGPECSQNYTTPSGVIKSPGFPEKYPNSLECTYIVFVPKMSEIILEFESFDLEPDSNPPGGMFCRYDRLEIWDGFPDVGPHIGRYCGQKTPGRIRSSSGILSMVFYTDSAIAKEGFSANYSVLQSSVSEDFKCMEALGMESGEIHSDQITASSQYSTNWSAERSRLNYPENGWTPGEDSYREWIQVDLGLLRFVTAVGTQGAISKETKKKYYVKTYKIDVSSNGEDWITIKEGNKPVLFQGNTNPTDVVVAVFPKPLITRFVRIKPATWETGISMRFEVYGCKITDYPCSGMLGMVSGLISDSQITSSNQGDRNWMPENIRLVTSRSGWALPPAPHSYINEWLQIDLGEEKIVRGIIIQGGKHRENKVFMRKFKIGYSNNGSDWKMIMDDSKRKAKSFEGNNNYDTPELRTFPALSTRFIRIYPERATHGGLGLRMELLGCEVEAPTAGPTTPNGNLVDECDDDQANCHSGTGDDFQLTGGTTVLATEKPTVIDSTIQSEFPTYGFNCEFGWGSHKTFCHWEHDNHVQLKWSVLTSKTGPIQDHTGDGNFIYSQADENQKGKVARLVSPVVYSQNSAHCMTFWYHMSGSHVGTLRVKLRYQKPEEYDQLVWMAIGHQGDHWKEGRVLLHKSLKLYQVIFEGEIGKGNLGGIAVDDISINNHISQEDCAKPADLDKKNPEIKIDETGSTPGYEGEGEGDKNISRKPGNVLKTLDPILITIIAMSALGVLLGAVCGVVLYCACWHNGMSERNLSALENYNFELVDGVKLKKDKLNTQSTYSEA

| SMILES | IC50 |
| --- | --- |
| COC(=O)C1=C(c2cccc(C#N)c2)C[C@@H]2CC[C@H]1N2C(=O)NCCO | > 100 µM (inactive) |
| Oc1ccccc1-c1ccn[nH]1 | > 100 µM (inactive) |
| C/C(=N\N=c1/sc2ccccc2n1C)c1ccccn1 | > 100 µM (inactive) |
| Fc1cnc(N2CCOCC2)nc1N1CCOCC1 | > 100 µM (inactive) |
| C[C@@H](NC(=O)c1[nH]cnc1C(=O)Nc1cccc(Cl)c1)c1ccccc1 | inactive |
| CCCCCCCN1C(Nc2ccccc2)=NC[C@@H]1Cc1ccccc1 | > 100 µM (inactive) |
| C=C(C)C1CC=C(C)/C(=N\NC(=O)CNc2ccccc2OC)C1 (stereo not given) | > 100 µM (inactive) |
| c1ccc2c3n(nc2c1)CCCO3 | > 100 µM (inactive) |
| CCOC(=O)C1=C(C)NC2=C(C(=O)CCC2)C1c1cn(Cc2ccc(Cl)cc2Cl)nc1-c1ccccc1 (stereo not given) | inactive |
| Cc1nc(SCc2ccc(C(=O)O)cc2)nc2c1CCCC2 | > 100 µM (inactive) |
| O=C(NNC(=O)c1csc(N2CCOCC2)n1)c1ccc(=O)[nH]c1 | > 100 µM (inactive) |
| Cc1[nH]n(-c2ccccc2)c(=S)c1C=Nc1cccc([N+](=O)[O-])c1 | > 100 µM (inactive) |
| CCc1ccc(C2CC(=O)N(c3cccc(F)c3)C3=C2C(=O)OC3)cc1 (stereo not given) | > 100 µM (inactive) |
| Nc1ncnc2[nH]c(=S)[nH]c12 | > 100 µM (inactive) |
| O=C1N[C@H](Cc2c[nH]c3ccccc23)COC(=O)[C@H](Cc2ccc(F)cc2)C/C=C\C[C@H]1CC(=O)N(CCO)Cc1ccccc1 | 15 µM |
| CC(/C=C/c1ccccc1)=N\NC(=O)CCc1ccccc1 | > 100 µM (inactive) |
| Cc1ccc(C(=O)NCCCc2ccccc2)c(C)c1 | > 100 µM (inactive) |
| O=C(NCCCN1CCCC(O)C1)c1cc(COc2ccc(F)cc2F)on1 (stereo not given) | > 100 µM (inactive) |
| FC(F)(F)c1cc(C(F)(F)F)c2ccc(Oc3ccccc3)nc2n1 | > 100 µM (inactive) |
| COc1ccc(N=C2C(=Nc3ccc(OC)cc3)N(c3ccc(N(C)C)cc3)C(=S)N2c2ccc(OC)cc2)cc1 | > 100 µM (inactive) |
| Cc1ccc(C(=O)N/C(=C\c2ccc(-c3ccccc3[N+](=O)[O-])o2)C(=O)NCCCN2CCOCC2)cc1 | > 100 µM (inactive) |
| C=C1CCN([C@@H](CC(C)C)C(=O)NCc2ccccc2)S(=O)(=O)c2ccccc21 | > 100 µM (inactive) |
| NC(=O)CC[C@H](NC(=O)c1ccc(F)cc1)C(=O)N1CCN(Cc2ccc3c(c2)OCO3)CC1 | > 100 µM (inactive) |
| CCc1cc(C(=O)OC)c(NC(=O)c2ccoc2C)s1 | > 100 µM (inactive) |
| CCN(CC)C(=O)CSc1nnc(-c2c[nH]c3ccccc23)o1 | > 100 µM (inactive) |
| C[C@@H](C(=O)Nc1cccnc1)n1c(=O)[nH]c2ccccc2c1=O | > 100 µM (inactive) |
| CCOC(=O)C(NC(=O)CC(C)C)(Nc1sc(C)c(CC)c1C#N)C(F)(F)F (stereo not given) | > 100 µM (inactive) |
| CC#CCN(Cc1ccco1)C(=O)C1CCC(=O)N(Cc2ccccc2F)C1 (stereo not given) | > 100 µM (inactive) |
| Nc1ccc(C#Cc2c(-c3ccsc3)oc3ccc(N4CCOCC4)cc23)cc1 | > 100 µM (inactive) |
| Cn1c(=O)c2[nH]c(NCCCN3CCOCC3)nc2n(C)c1=O | > 100 µM (inactive) |

Second part, the compound after the results:

| IC50 | SMILES |
| --- | --- |
| > 100 µM (inactive) | COc1ccc(NC(=O)CN2CCN(c3c(C)cc(C)cc3C)CC2)cc1 |
| > 100 µM (inactive) | COc1cccc(NC(=O)CSc2nc(O)c(C)c(=O)n2-c2ccc(C)cc2)c1 |
| > 100 µM (inactive) | CCCCN(c1ccccc1)S(=O)(=O)c1ccc2c(c1)CCN2C(=O)CCC(=O)O |
| inactive | CN(c1ccc(OCC(=O)OCC(=O)Nc2ccc([N+](=O)[O-])cc2)cc1)S(=O)(=O)c1cccs1 |
| > 100 µM (inactive) | COc1ccc(C(=O)N[C@H](C(=O)Nc2nc3c(s2)CCCC3)C(C)C)cc1 |
| > 100 µM (inactive) | CCN(CC)C(=O)c1cccc(-c2csc(C(NC(C)=O)c3cccc(OC)c3)n2)c1 (stereo not given) |
| inactive | CC(=O)Nc1cc(F)c2c(c1F)Cc1cc(F)ccc1-2 |
| > 100 µM (inactive) | COc1cccc(OCCNC(=O)Nc2cc(F)c(F)cc2Cl)c1 |
| > 100 µM (inactive) | O=C(Nc1cccc(C(F)(F)F)c1)C1Cc2c(-c3cccc(F)c3)ccnc2O1 (stereo not given) |
| inactive | COc1cc2c(cc1OC)C(Nc1ccc(S(N)(=O)=O)cc1)=NC(C)(C)C2 |
| > 100 µM (inactive) | CCOC(=O)c1ccc(NC(=O)CN2CCc3ccccc3C2)cc1 |
| > 100 µM (inactive) | Cc1cc2c(cc1C)NC(c1nc3ccccc3[nH]1)C1=C(CC(C)(C)CC1=O)N2 (stereo not given) |
| > 100 µM (inactive) | COc1cccc(OCC(=O)NNC(=S)Nc2ccc(Cl)cc2Cl)c1 |
| > 100 µM (inactive) | COc1cc2oc(=O)ccc2cc1[C@@H](O)[C@@H]1OC(C)(C)OC1(C)C |

same assay, conditions: NRP-1 b1b2 / RPARPAR peptide binding, FP or AlphaScreen; AlphaScreen, run 1; individual panel run IC50

| SMILES | IC50 |
| --- | --- |
| COC(=O)C1=C(c2cccc(C#N)c2)C[C@@H]2CC[C@H]1N2C(=O)NCCO | > 100 µM |
| Oc1ccccc1-c1ccn[nH]1 | > 100 µM |
| C/C(=N\N=c1/sc2ccccc2n1C)c1ccccn1 | > 100 µM |
| Fc1cnc(N2CCOCC2)nc1N1CCOCC1 | > 100 µM |
| C[C@@H](NC(=O)c1[nH]cnc1C(=O)Nc1cccc(Cl)c1)c1ccccc1 | 21.8 µM |
| CCCCCCCN1C(Nc2ccccc2)=NC[C@@H]1Cc1ccccc1 | > 100 µM |
| C=C(C)C1CC=C(C)/C(=N\NC(=O)CNc2ccccc2OC)C1 (stereo not given) | > 100 µM |
| c1ccc2c3n(nc2c1)CCCO3 | > 100 µM |
| CCOC(=O)C1=C(C)NC2=C(C(=O)CCC2)C1c1cn(Cc2ccc(Cl)cc2Cl)nc1-c1ccccc1 (stereo not given) | 35.5 µM |
| Cc1nc(SCc2ccc(C(=O)O)cc2)nc2c1CCCC2 | > 100 µM |
| O=C(NNC(=O)c1csc(N2CCOCC2)n1)c1ccc(=O)[nH]c1 | > 100 µM |
| Cc1[nH]n(-c2ccccc2)c(=S)c1C=Nc1cccc([N+](=O)[O-])c1 | > 100 µM |
| CCc1ccc(C2CC(=O)N(c3cccc(F)c3)C3=C2C(=O)OC3)cc1 (stereo not given) | > 100 µM |
| Nc1ncnc2[nH]c(=S)[nH]c12 | > 100 µM |
| O=C1N[C@H](Cc2c[nH]c3ccccc23)COC(=O)[C@H](Cc2ccc(F)cc2)C/C=C\C[C@H]1CC(=O)N(CCO)Cc1ccccc1 | 15 µM |
| CC(/C=C/c1ccccc1)=N\NC(=O)CCc1ccccc1 | > 100 µM |
| Cc1ccc(C(=O)NCCCc2ccccc2)c(C)c1 | > 100 µM |
| O=C(NCCCN1CCCC(O)C1)c1cc(COc2ccc(F)cc2F)on1 (stereo not given) | > 100 µM |
| FC(F)(F)c1cc(C(F)(F)F)c2ccc(Oc3ccccc3)nc2n1 | > 100 µM |
| COc1ccc(N=C2C(=Nc3ccc(OC)cc3)N(c3ccc(N(C)C)cc3)C(=S)N2c2ccc(OC)cc2)cc1 | > 100 µM |
| Cc1ccc(C(=O)N/C(=C\c2ccc(-c3ccccc3[N+](=O)[O-])o2)C(=O)NCCCN2CCOCC2)cc1 | > 100 µM |
| C=C1CCN([C@@H](CC(C)C)C(=O)NCc2ccccc2)S(=O)(=O)c2ccccc21 | > 100 µM |
| NC(=O)CC[C@H](NC(=O)c1ccc(F)cc1)C(=O)N1CCN(Cc2ccc3c(c2)OCO3)CC1 | > 100 µM |
| CCc1cc(C(=O)OC)c(NC(=O)c2ccoc2C)s1 | > 100 µM |
| CCN(CC)C(=O)CSc1nnc(-c2c[nH]c3ccccc23)o1 | > 100 µM |
| C[C@@H](C(=O)Nc1cccnc1)n1c(=O)[nH]c2ccccc2c1=O | > 100 µM |
| CCOC(=O)C(NC(=O)CC(C)C)(Nc1sc(C)c(CC)c1C#N)C(F)(F)F (stereo not given) | > 100 µM |
| CC#CCN(Cc1ccco1)C(=O)C1CCC(=O)N(Cc2ccccc2F)C1 (stereo not given) | > 100 µM |
| Nc1ccc(C#Cc2c(-c3ccsc3)oc3ccc(N4CCOCC4)cc23)cc1 | > 100 µM |
| Cn1c(=O)c2[nH]c(NCCCN3CCOCC3)nc2n(C)c1=O | > 100 µM |

Next, values leading:

| IC50 | SMILES |
| --- | --- |
| > 100 µM | COc1ccc(NC(=O)CN2CCN(c3c(C)cc(C)cc3C)CC2)cc1 |
| > 100 µM | COc1cccc(NC(=O)CSc2nc(O)c(C)c(=O)n2-c2ccc(C)cc2)c1 |
| > 100 µM | CCCCN(c1ccccc1)S(=O)(=O)c1ccc2c(c1)CCN2C(=O)CCC(=O)O |
| 44.1 µM | CN(c1ccc(OCC(=O)OCC(=O)Nc2ccc([N+](=O)[O-])cc2)cc1)S(=O)(=O)c1cccs1 |
| > 100 µM | COc1ccc(C(=O)N[C@H](C(=O)Nc2nc3c(s2)CCCC3)C(C)C)cc1 |
| > 100 µM | CCN(CC)C(=O)c1cccc(-c2csc(C(NC(C)=O)c3cccc(OC)c3)n2)c1 (stereo not given) |
| 89.2 µM | CC(=O)Nc1cc(F)c2c(c1F)Cc1cc(F)ccc1-2 |
| > 100 µM | COc1cccc(OCCNC(=O)Nc2cc(F)c(F)cc2Cl)c1 |
| > 100 µM | O=C(Nc1cccc(C(F)(F)F)c1)C1Cc2c(-c3cccc(F)c3)ccnc2O1 (stereo not given) |
| 51.8 µM | COc1cc2c(cc1OC)C(Nc1ccc(S(N)(=O)=O)cc1)=NC(C)(C)C2 |
| > 100 µM | CCOC(=O)c1ccc(NC(=O)CN2CCc3ccccc3C2)cc1 |
| > 100 µM | Cc1cc2c(cc1C)NC(c1nc3ccccc3[nH]1)C1=C(CC(C)(C)CC1=O)N2 (stereo not given) |
| > 100 µM | COc1cccc(OCC(=O)NNC(=S)Nc2ccc(Cl)cc2Cl)c1 |
| > 100 µM | COc1cc2oc(=O)ccc2cc1[C@@H](O)[C@@H]1OC(C)(C)OC1(C)C |

same assay, conditions: NRP-1 b1b2 / RPARPAR peptide binding, FP or AlphaScreen; FP, mean of runs

| SMILES | IC50 |
| --- | --- |
| COC(=O)C1=C(c2cccc(C#N)c2)C[C@@H]2CC[C@H]1N2C(=O)NCCO | > 95 µM (inactive) |
| Oc1ccccc1-c1ccn[nH]1 | > 95 µM (inactive) |
| C/C(=N\N=c1/sc2ccccc2n1C)c1ccccn1 | > 95 µM (inactive) |
| Fc1cnc(N2CCOCC2)nc1N1CCOCC1 | > 95 µM (inactive) |
| C[C@@H](NC(=O)c1[nH]cnc1C(=O)Nc1cccc(Cl)c1)c1ccccc1 | > 95 µM (inactive) |
| CCCCCCCN1C(Nc2ccccc2)=NC[C@@H]1Cc1ccccc1 | > 95 µM (inactive) |
| C=C(C)C1CC=C(C)/C(=N\NC(=O)CNc2ccccc2OC)C1 (stereo not given) | > 95 µM (inactive) |
| c1ccc2c3n(nc2c1)CCCO3 | > 95 µM (inactive) |
| CCOC(=O)C1=C(C)NC2=C(C(=O)CCC2)C1c1cn(Cc2ccc(Cl)cc2Cl)nc1-c1ccccc1 (stereo not given) | > 95 µM (inactive) |
| Cc1nc(SCc2ccc(C(=O)O)cc2)nc2c1CCCC2 | > 95 µM (inactive) |
| O=C(NNC(=O)c1csc(N2CCOCC2)n1)c1ccc(=O)[nH]c1 | > 95 µM (inactive) |
| Cc1[nH]n(-c2ccccc2)c(=S)c1C=Nc1cccc([N+](=O)[O-])c1 | > 95 µM (inactive) |
| CCc1ccc(C2CC(=O)N(c3cccc(F)c3)C3=C2C(=O)OC3)cc1 (stereo not given) | > 95 µM (inactive) |
| Nc1ncnc2[nH]c(=S)[nH]c12 | > 95 µM (inactive) |
| O=C1N[C@H](Cc2c[nH]c3ccccc23)COC(=O)[C@H](Cc2ccc(F)cc2)C/C=C\C[C@H]1CC(=O)N(CCO)Cc1ccccc1 | > 95 µM (inactive) |
| CC(/C=C/c1ccccc1)=N\NC(=O)CCc1ccccc1 | > 95 µM (inactive) |
| Cc1ccc(C(=O)NCCCc2ccccc2)c(C)c1 | > 95 µM (inactive) |

Other lines, results leading:

| IC50 | SMILES |
| --- | --- |
| > 95 µM (inactive) | COc1ccc(NC(=O)CN2CCN(c3c(C)cc(C)cc3C)CC2)cc1 |
| inactive | COc1cccc(NC(=O)CSc2nc(O)c(C)c(=O)n2-c2ccc(C)cc2)c1 |
| > 95 µM (inactive) | CCCCN(c1ccccc1)S(=O)(=O)c1ccc2c(c1)CCN2C(=O)CCC(=O)O |
| > 95 µM (inactive) | CN(c1ccc(OCC(=O)OCC(=O)Nc2ccc([N+](=O)[O-])cc2)cc1)S(=O)(=O)c1cccs1 |
| > 95 µM (inactive) | COc1ccc(C(=O)N[C@H](C(=O)Nc2nc3c(s2)CCCC3)C(C)C)cc1 |
